Assay results published in PMC8765435, “In Vitro Antimalarial Activity of Inhibitors of the Human GTPase Rac1” (Antimicrobial Agents and Chemotherapy, 2022).
Read-outs that look alike come from different tables or passages of the source.

Assays:
Rac1 [1] = system: Rac1; design: method as in PMID 21433368; conditions: Rac1 activity in EGF-stimulated NIH 3T3 fibroblasts; cited from earlier work
[2] = system: P. falciparum asexual parasites, chloroquine-resistant W2 strain; test: Drug susceptibility assay (pLDH), asexual parasites, W2 strain; format: cell-based, Plasmodium falciparum
Experimental: (§1) Chloroquine (CQ)-sensitive (D10, wild-type 3D7, or transgenic 3D7elo1-pfs16-CBG99) and CQ-resistant (W2) strains of P. falciparum were cultured as described previously ([58]), with slight modifications, as detailed in the supplemental material.
(§2) Asexual parasite growth was determined spectrophotometrically (optical density at 650 nm [OD650]) by measuring the activity of parasite lactate dehydrogenase (pLDH), according to a modified version of the method of Makler et al. ([59]). Gametocyte viability was measured by a luminescence method described previously ([60]). Details for the two methods are reported in the supplemental material. From either the OD or ALU (arbitrary luminescence units), the percentages of viability were calculated according to the formula 100 × (treated sample signal − blank signal)/(untreated control signal − blank signal). The blank for the pLDH assay was uninfected RBCs at the same hematocrit as that of parasitized RBCs, and the blank for the luminescence assay was parasites treated with a high dose of methylene blue. […]
(§3) The CQ-sensitive (D10) and the CQ-resistant (W2) strains were maintained at 5% hematocrit […]
(§4) supplemented with 1% AlbuMaxII (lipid-rich bovine serum albumin) (Invitrogen), 0.01% hypoxantine (Sigma), 20mM Hepes (EuroClone), 2 mM glutamine (EuroClone). […]
(§5) In vitro P. falciparum drug susceptibility assay […]
(§6) plate were transferred to a plate containing 100µl of Malstat reagent (0.11% [vol/vol] Triton- […]
(§7) dinucleotide [APAD] [Sigma-Aldrich], adjusted to pH 9 with 1 M HCl) and 25 µl of PES/NBT […]
(§8) pLDHassay. The plate was read at a wavelength of 650 nm using a microplate reader, Synergy4 […]
(§9) Uninfected RBC at the same HCT than parasites were used as blank. […]

[3] = system: P. falciparum asexual parasites, chloroquine-sensitive D10 strain; test: Drug susceptibility assay (pLDH), asexual parasites, D10 strain; format: cell-based, Plasmodium falciparum; conditions: for antimalarial activity (in words): asexual and sexual P. falciparum parasites
Experimental: as §1, §2, §3, §4, §5, §6, §7, §8, §9

3D7 mature gametocytes = test: Gametocyte viability luminescence assay, mature gametocytes; format: cell-based, Plasmodium falciparum
Experimental: as §1, §2
(§10) strain (wild type or transgenic 3D7elo1-pfs16-CBG99 strain) was cultured in similar conditions, except for 10% naturally clotted Human O+ serum instead of AlbuMaxII and human type O-positive instead of A-positive RBCs. […]
(§11) in a standard gas mixture consisting of 1% O2, 5% CO2, 94% N2. Immature (stage II-III) and mature (stage V) gametocytes were obtained as described1. Briefly, cultures were diluted to 0.5% parasitemia at 5% HCT, and the medium was changed daily until parasites were stressed by nutrient deprivation. N-acetylglucosamine (NAG) (Sigma-Aldrich) 50 mM was then added to clear residual asexual parasites: Stage II and III gametocytes were obtained 4 days after NAG addition to the culture, while stage IV and V gametocytes were used 11 to 13 days from NAG addition. Gametocyte stages were routinely checked on Giemsa-stained smears. […]
(§12) Drug treated gametocyte cultures were transferred to 96-well black microplates and D-luciferin (1 mM in citrate buffer 0.1 M, pH 5.5) was added at a 1:1 volume ratio. Luminescence measurements were performed after 10 min with 500 ms integration time. Gametocytes treated

Rac1 [4] = system: Rac1; design: method as in PMID 15128949; conditions: Rac1 activity in PDGF-stimulated NIH 3T3 fibroblasts; cited from earlier work
[5] = system: HMEC-1 human microvascular endothelial cells; test: Cell cytotoxicity MTT assay; format: cell-based; conditions: for IC50: read-out: Mean HMEC-1 IC50 ± SD; for SI (selectivity index): ratio IC50 against HMEC-1 cells / IC50 against D10 asexual parasites
Experimental: Cytotoxicity was evaluated on human microvascular endothelial cells (HMEC-1) as detailed in the supplemental material. […] Plates were then read on a microplate reader (Synergy 4; BioTek) at a wavelength of 550 nm (reference, 650 nm). […] All tests were performed in duplicate at least three times.
The selectivity index (SI) is the ratio between the cytotoxic IC50 value against HMEC-1 cells and the parasitic IC50 value against the D10 strain and indicates the compound selectivity for the parasite.
Cytotoxicity was evaluated on Human Microvascular Endothelial Cells (HMEC-1) maintained
and 2 mM L-glutamine. Cells were seeded in 96 well flat bottom tissue culture clusters (1.5x104
cells/well), let adhere overnight and treated with serial dilutions of test compounds . […]

3D7 immature gametocytes = test: Gametocyte viability luminescence assay, immature gametocytes; format: cell-based, Plasmodium falciparum; conditions: 72 h, read-out: Mean IC50 ± SD, 3D7 immature gametocytes
Experimental: as §1, §2, §10, §11, §12

[6] = system: REF-52 rat embryo fibroblasts; design: method as in PMID 19549603; conditions: Actin stress fiber formation in REF-52 rat embryo fibroblasts; cited from earlier work
[7] = system: F3II mammary carcinoma cells; design: method as in PMID 24066799; conditions: F3II mammary carcinoma cell proliferation; cited from earlier work
[8] = system: P. falciparum asexual parasites, chloroquine-resistant W2 strain; design: method as in PMID 33328606; conditions: reported previously, read-out: Mean IC50 ± SD, W2; cited from earlier work
[9] = system: P. falciparum asexual parasites, chloroquine-sensitive D10 strain; design: method as in PMID 33328606; conditions: reported previously, read-out: Mean IC50 ± SD, D10; cited from earlier work
Rac1 [10] = system: Rac1; design: method as in PMID 20008126; conditions: Rac1 activity in Swiss 3T3 embryonic mouse fibroblasts; cited from earlier work
Rac1 [11] = target: T1, Rac1 (Homo sapiens, UniProt P63000); design: endogenous in cells; method as in PMID 24040362; conditions: Rac1 activity in 22Rv1 human prostate cancer cells; cited from earlier work
Rac1 [12] = target: T1, Rac1; design: endogenous in cells; conditions: Rac1 activity in human smooth muscle cells; cited from earlier work
Rac1 [13] = system: Rac1; design: method as in PMID 17932039; conditions: Rac1 activity in U87MG glioma cells; cited from earlier work
[14] = asexual parasites, CQ-resistant W2 strain, 72 h, pLDH, read-out: Mean IC50 ± SD, W2
[15] = asexual parasites, CQ-sensitive D10 strain, 72 h, pLDH, read-out: Mean IC50 ± SD, D10
[16] = stage V gametocytes, 72 h, luminescence, read-out: Mean IC50 ± SD, 3D7 mature gametocytes
[17] = Plasmodium falciparum, 3D7, stage V gametocytes, 72 h, luminescence, read-out: Mean IC50 ± SD, 3D7 mature gametocytes
[18] = Plasmodium falciparum, 3D7, stage II-III gametocytes
[19] = Plasmodium falciparum, W2, 72 h, asexual parasites, CQ-resistant W2 strain, 72 h, pLDH, read-out: Mean IC50 ± SD, W2
[20] = Homo sapiens, HMEC-1, MTT, 72 h

For COc1ccc(C2CC(c3ccccc3)=NN2c2ccc(S(N)(=O)=O)cc2)cc1 (stereo not drawn) [ML141], the IC50 (Rac1 [1]) is given as ~10 µM, the IC50 [2, 14] is given as 17.3 ± 1.84 µM and the IC50 [3, 15] is given as 10.7 ± 0.29 µM.
In the case of Cc1cc(C)nc(NS(=O)(=O)c2ccc(NC(=S)NC(=O)COc3ccc(Br)cc3Cl)cc2)n1 [ZCL278], the IC50 (3D7 mature gametocytes; Table S2, CDC42 inhibitors, read-out: IC50, 3D7 mature gametocytes) is reported as 63.5 ± 27.3 µM, the IC50 [2, 14] is reported as > 50 µM and the “antimalarial activity (in words)” value [3] is reported as “not active”. The IC50 [3, 15] was > 50 µM.
In the case of CCN(CC)CCCC(C)Nc1nc(C)cc(Nc2ccc3nc(C)cc(N)c3c2)n1 (stereo not drawn) [NSC23766], the IC50 (3D7 mature gametocytes; [16]) is listed as 30.8 ± 3.09 µM, the IC50 [2, 14] is listed as 4.05 ± 0.5 µM and the IC50 (Rac1 [4]) is listed as […]. For the same compound, the IC50 ([5]; MTT, 72 h) was 154 ± 38.5 µM, the IC50 (3D7 immature gametocytes; stage II-III gametocytes) was 15.3 ± 3.7 µM and the IC50 [3, 15] was 5.02 ± 1.47 µM.
In the case of Cc1cc(/C=c2/sc3nc4ccccc4n3c2=O)c(C)n1-c1ccccc1 [ITX3], the IC50 [2, 14] is listed as > 50 µM, the IC50 [6] is listed as 50 to 100 µM and the “antimalarial activity (in words)” value [3] is listed as “no effect”. For the same compound, the IC50 [3, 15] was > 50 µM.
For Cc1cc(C)cc(NC(N)=Nc2ccccc2C(F)(F)F)c1 [Compound 1A116], the IC50 (3D7 mature gametocytes; [16]) is given as 56.6 ± 21.3 µM, the IC50 [7] is given as 4 µM and the IC50 ([5]; MTT, 72 h) is given as 132 ± 37.3 µM. For the same compound, the IC50 [8] was 6.89 ± 1.41 µM, the IC50 (3D7 immature gametocytes; stage II-III gametocytes) was 78.1 ± 17.7 µM and the IC50 [9] was 3.21 ± 1.17 µM.
With CC1CCCN(S(=O)(=O)c2ccc(NC(=O)c3cc(-c4ccccc4O)n[nH]3)cc2)C1 (stereo not drawn) [Compound 3] the IC50 (3D7 mature gametocytes; [17]) was 21.9 ± 2.71 µM, the IC50 ([2]; Plasmodium falciparum, W2, 72 h, read-out: Mean IC50 ± SD, W2, asexual parasites, CQ-resistant W2 strain, 72 h, pLDH) was < 1 µM and the IC50 ([2]; read-out: Mean IC50 ± SD, W2, asexual parasites, CQ-resistant W2 strain, 72 h, pLDH) was 0.52 ± 0.02 µM. The IC50 ([5]; Homo sapiens, HMEC-1, 72 h) was 10.6 ± 1.19 µM, the IC50 (3D7 immature gametocytes; [18]) was 2.26 ± 0.22 µM and the IC50 ([3]; Plasmodium falciparum, D10, 72 h, read-out: Mean IC50 ± SD, D10, asexual parasites, CQ-sensitive D10 strain, 72 h, pLDH) was < 1 µM. The IC50 ([3]; read-out: Mean IC50 ± SD, D10, asexual parasites, CQ-sensitive D10 strain, 72 h, pLDH) was 0.66 ± 0.05 µM and the melting point was 254 to 258 °C.
For O=C(C#Cc1ccccc1)c1cccc([N+](=O)[O-])c1 [MLS000532223], the IC50 [2, 14] is listed as 9.51 ± 1.66 µM, the IC50 (Rac1 [10]) is listed as ~10 µM and the IC50 [3, 15] is listed as 6.89 ± 0.73 µM.
For Cc1cc2cc(Nc3ccnc(Nc4ccc5[nH]c(C)cc5c4)n3)ccc2[nH]1 [Aza-1], the IC50 (3D7 mature gametocytes; [17]) was 7.23 ± 2.12 µM, the IC50 [2, 19] was < 1 µM and the IC50 [2, 14] was 0.76 ± 0.27 µM. For the same compound, the IC50 [5, 20] was 12.3 ± 6.11 µM, the “SI (selectivity index)” value [5] was 48.9 and the IC50 (Rac1 [11]) was 5 to 20 µM. For the same compound, the IC50 (3D7 immature gametocytes; [18]) was 1.25 ± 0.48 µM.
For Cc1ccc(NC(=O)c2cccc(OCc3c(C)noc3C)c2)cc1S(N)(=O)=O [Rac1 inhibitor II], the IC50 [2, 14] is listed as 37.5 ± 8.67 µM, the IC50 (Rac1 [12]) is listed as 12.2 µM and the IC50 [3, 15] is listed as 11.9 ± 7.37 µM.
CC1CCCN(S(=O)(=O)c2cccc(NC(=O)c3cc(-c4ccccc4O)n[nH]3)c2)C1 (stereo not drawn) [Compound 3′] gave an IC50 (3D7 mature gametocytes; [17]) of 26.6 ± 3.7 µM, an IC50 [2, 19] of 1.24 ± 0.13 µM and an IC50 [5, 20] of 16 ± 0.44 µM. For the same compound, the “SI (selectivity index)” value [5] was 5.8, the IC50 (3D7 immature gametocytes; [18]) was 2.13 ± 0.43 µM and the IC50 ([3]; Plasmodium falciparum, D10, 72 h, asexual parasites, CQ-sensitive D10 strain, 72 h, pLDH, read-out: Mean IC50 ± SD, D10) was 2.76 ± 0.12 µM.
In the case of O=c1cc(CN2CCOCC2)occ1OCCCCCSc1ccnc2cc(C(F)(F)F)ccc12 [EHT1864], the IC50 (3D7 mature gametocytes; [16]) is given as 32.6 ± 0.92 µM, the IC50 ([5]; MTT, 72 h) is given as 48.5 ± 1.23 µM and the IC50 [8] is given as 7.75 ± 1.82 µM. For the same compound, the IC50 (3D7 immature gametocytes; stage II-III gametocytes) was > 50 µM, the IC50 [9] was 3.88 ± 0.74 µM and the IC50 (Rac1 [13]) was 10 to 50 µM.
CCN(CC)CCCC(C)Nc1ccnc2cc(Cl)ccc12 (stereo not drawn) [Chloroquine] gave an IC50 ([2]; Plasmodium falciparum, W2, 72 h, read-out: Mean IC50 ± SD, W2) of 0.42 ± 0.08 µM and an IC50 ([3]; Plasmodium falciparum, D10, 72 h, read-out: Mean IC50 ± SD, D10) of 0.02 ± 0.003 µM.
For Cc1cc(C)nc(N=C(N)Nc2ccccc2C(F)(F)F)n1 [ZINC69391], the IC50 [7] is given as 61 µM, the IC50 [2, 14] is given as 12.6 ± 5.25 µM and the IC50 [3, 15] is given as 17.5 ± 4.64 µM.
CN(C)c1ccc2nc3ccc(=[N+](C)C)cc-3sc2c1 [Methylene blue] showed an IC50 (3D7 mature gametocytes; [17]) of 0.12 ± 0.03 µM and an IC50 (3D7 immature gametocytes; [18]) of 0.03 ± 0.01 µM.
